Experimental data from US12343326B2, “Psychoactive medicines and their use for treating psychiatric and neurological conditions and disorders” (Transcend Therapeutics, Inc., priority 2021, dated 2025).

Tests used:
[1] = biological target: T1, 5HT2C receptor (Homo sapiens, UniProt P28335); assay: GPCRmax screen, antagonist mode; type: cell-based
T1 construct: beta-galactosidase enzyme fragment (PathHunter complementation tag); host or cells: PathHunter cell lines

[2] = biological target: T2, 5HT2A receptor (Homo sapiens, UniProt P28223); assay: GPCRmax screen, antagonist mode; type: cell-based
T2 construct: beta-galactosidase enzyme fragment (PathHunter complementation tag); host or cells: PathHunter cell lines

[3] = system: participants with PTSD; assay: IMPACT-1 Part A open-label study of methylone for PTSD; type: in vivo, human
From the text: Brief Summary: This is a two-part study to assess methylone for the management of the symptoms of PTSD. Part A is an open-label, non-controlled assessment in up to 15 evaluable participants with PTSD to assess early safety and efficacy and to confirm procedures included in the blinded portion (Part B) of the study. After completion of Part A, enrollment for Part B will begin in up to 64 participants. Part B is identical to Part A with the exception of the inclusion of a placebo arm in Part B.
For each participant in Parts A and B, the study consists of: • Screening Period (Day −28 to Day −4): Informed consent, eligibility assessment, and enrolment of eligible participants. • Baseline/Preparatory Session (Day −3 to Day −1): Baseline assessments, confirmation of eligibility, and a preparatory psychoeducation session leading to enrolment confirmation. • Treatment Period (Day 1 to Day 24): Four weekly dose sessions, with associated remote sessions. The dose sessions last at least 8 hours, or until all effects (physical and psychological) have resolved (whichever is longer). Each dose session is followed by a safety phone call 1 day after dosing and efficacy assessments 2 days after dosing. Each dosing period is video recorded for quality and training purposes. The videos may be reviewed to ensure the Mentor is adhering to the Mentor training. • Follow-Up Period (Day 29 to Day 64): Follow-Up visits for safety and efficacy occur at 1, 2, 3 and 6 weeks post-final study drug administration. In addition, there are Mentor-Led Reflection Sessions 1, 2 and 3 weeks post-final study drug administration. Participants are contacted via telephone on Day 57 (±2 days) for Follow-Up. • Discontinuations: Participants who discontinue prematurely are asked to return for an extra visit to duplicate the 6-week end-of-study (EOS) visit.
Each dose was given as an initial dose, followed by a second dose 90 minutes later. During the dosing session, participants were accompanied by a trained Mentor who provided non-directive support. After the 4-week treatment period, participants attended follow-up visits at 1, 2, 3, and 6 weeks following the last dose. Safety was assessed via standard measures including adverse events. PTSD symptoms were assessed via Clinician-Administered PTSD Scale for DSM-5 (CAPS-5), depressive symptoms were assessed via Montgomery-Asberg Depression Rating Scale (MADRS). Anti-anxiety efficacy was evaluated using the Anxiety Sub-Scale of MADRS, namely, questions (Items 3, 4, 5, 6) that address four anxiety items (inner tension, reduced sleep, reduced appetite, concentration difficulties) Changes from baseline were analyzed using a paired t-test p-values.
Methods: The IMPACT-1 study is a multi-center, two-part clinical trial. Part A has completed and was an open-label evaluation involving 14 participants with PTSD. Eligible participants are adults with severe PTSD (CAPS-5≥35) who had failed at least 1 prior treatment (pharmacotherapy and/or psychotherapy) for PTSD. […] Throughout each dosing session, participants were provided non-directive psychological support by a trained mental health practitioner. Following the 4-week treatment period, participants were followed for an additional 6 weeks to evaluate the durability of the therapeutic effect. PTSD symptom improvement was evaluated on the CAPS-5. Functioning was assessed via the 3 domains (school/work, family life, social life) of the Sheehan Disability Scale (SDS). Global improvement was measured by the CGI-I. Safety was assessed by monitoring adverse events, vital signs, and C-SSRS.
Following the 4-week treatment period, participants were followed for an additional 6 weeks to evaluate the durability of the therapeutic effect. […]

[4] = system: 168 GPCRs; assay: β-arrestin based GPCR screen (PathHunter / GPCRmax), agonist mode; type: cell-based
Experimental: For agonist determination, cells were incubated with sample to induce response. […] Vehicle concentration was 1%.

[5] = system: C57BL/6J mice; assay: Cued fear conditioning, extinction training and recall (Example 35); type: in vivo, mouse
Experimental: Methods: Cued fear conditioning was performed in C57BL/6J mice. On day 1, animals were placed in the chambers and presented with a training session (CS-US pairing). The training consisted of a 2-minute habituation followed by a 30-second, 80 dB tone; during the last 2 seconds of the tone animals received a 1 mA foot shock. This US-CS procedure occurred once for a total of one paired presentation of tone and shock. Freezing behavior (immobility) was recorded in 5-10-sec intervals during the session. Percent baseline freezing behavior was determined in the 2-minute habituation period. On day 3, animals were placed in context B, in which tactile and odor cues differed from context A. Following a 2 minute acclimation period animals received 4×30 sec presentations of the CS (tone) in the absence of the US (footshock), with a 45 sec interval between presentations. Freezing was recorded in 5-10-sec intervals to measure baseline freezing response to the altered context, and freezing response to each tone cue presentation. […] Freezing was recorded in 5-10-sec intervals to measure baseline freezing response to the altered context, and freezing response to each tone cue presentation.

T1 sequence (P28335 33-458): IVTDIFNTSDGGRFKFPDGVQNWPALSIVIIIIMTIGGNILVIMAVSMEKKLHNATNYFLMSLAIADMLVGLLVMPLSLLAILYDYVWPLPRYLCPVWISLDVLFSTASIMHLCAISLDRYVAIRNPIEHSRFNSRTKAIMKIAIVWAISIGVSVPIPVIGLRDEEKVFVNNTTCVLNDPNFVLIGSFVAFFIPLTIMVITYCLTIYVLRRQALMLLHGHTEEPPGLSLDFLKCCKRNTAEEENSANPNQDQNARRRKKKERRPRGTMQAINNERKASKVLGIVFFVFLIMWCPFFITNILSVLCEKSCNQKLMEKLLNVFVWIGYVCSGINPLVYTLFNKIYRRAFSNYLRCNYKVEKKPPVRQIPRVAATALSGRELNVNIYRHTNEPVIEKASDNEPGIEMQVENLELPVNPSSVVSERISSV
T2 sequence (P28223 whole entry, the tested form may be a part): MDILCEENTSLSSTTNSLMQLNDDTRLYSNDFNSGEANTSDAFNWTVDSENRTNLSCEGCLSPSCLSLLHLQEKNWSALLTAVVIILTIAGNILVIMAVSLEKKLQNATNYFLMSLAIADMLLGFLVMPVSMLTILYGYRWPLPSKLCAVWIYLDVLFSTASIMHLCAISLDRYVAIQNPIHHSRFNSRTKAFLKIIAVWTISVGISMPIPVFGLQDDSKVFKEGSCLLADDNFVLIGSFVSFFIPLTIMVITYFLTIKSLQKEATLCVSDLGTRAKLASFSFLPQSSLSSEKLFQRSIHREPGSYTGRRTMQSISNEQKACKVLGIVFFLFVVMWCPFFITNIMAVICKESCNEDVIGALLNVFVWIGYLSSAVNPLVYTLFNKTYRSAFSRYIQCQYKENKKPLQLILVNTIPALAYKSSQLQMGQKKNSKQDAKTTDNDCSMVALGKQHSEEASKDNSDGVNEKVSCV

For `CNC(C)C(=O)c1ccc2c(c1)OCO2` (centres unmarked) [methylone, 3,4-methylenedioxy-N-methylcathinone], the “antagonist activity (% inhibition)” value ([1]; 1 or 10 mM, threshold 50%) was “no agonist or antagonist activity”, the activity at 10 µM ([1]; HTR2C, Antagonist mode, 10 uM) was 24.2% and the activity at 1 µM ([1]; HTR2C, Antagonist, 1 uM) was 21.1%. The “antagonist activity (% inhibition)” value ([2]; 1 or 10 mM, threshold 50%) was “no agonist or antagonist activity”, the activity at 10 µM ([2]; HTR2A, Antagonist mode, 10 uM) was -2.7% and the activity at 1 µM ([2]; HTR2A, Antagonist, 1 uM) was -7.9%. For the same compound, the “CAPS-5 scores decreased by” value ([3]; Day 3) was 8.4 points, the “MADRS scores decreased by” value ([3]; Day 3) was 8.2 points and the “drug-related SAEs” value ([3]; Safety Population, N = 14) was “No drug-related SAEs occurred”. The “participants with absence of Distressing Dreams symptom” value ([3]; after treatment) was 77%, the “participants with absence of Reduced Sleep symptom (MADRS)” value ([3]; after treatment) was 62% and the “participants with absence of Sleep Disturbances symptom” value ([3]; after treatment) was 62%. For the same compound, the “participants much or very much improved (CGI-I)” value ([3]; end of the study) was “all participants”, the “agonist activity at any of the 168 GPCRs (criterion >30% activity)” value ([4]; 1 and 10 micromolar) was “did not meet criteria for agonist or antagonist activity” and the “% Activity” value ([4]; DRD2S, Agonist mode, 10 uM) was 0.6%. The “% Activity” value ([4]; DRD2S, Agonist, 1 uM) was 0%, the “% Activity” value ([4]; NPSR1b, Agonist mode, 10 uM) was 4.8% and the “% Activity” value ([4]; NPSR1b, Agonist, 1 uM) was −1.3%. The “fear extinction training on day 3” value ([5]; all doses: 10, 20 or 30 mg/kg IP) was “significantly improved fear extinction training” and the “effect on fear extinction training and testing” value ([5]; methylone 30 mg/kg IP 30 min before extinction training on Day 3) was “rapid, robust and long-lasting beneficial effect”.
